Measurements: ChEMBL document CHEMBL4420076, “Amylin and calcitonin receptor agonist” (2017)
Numbered stars: 1 amine (or outer) side, 2 acyl side, 3 side chain; on linkers, the order of the positions; unused ones are H or OH. Peptide text beside a SMILES is read from it. * marks the point of attachment. C20 diacid = O=C(O)CCCCCCCCCCCCCCCCCCC(=O)*; C18 diacid = O=C(O)CCCCCCCCCCCCCCCCC(=O)*; γGlu = O=C(O)[C@H](CCC(=O)[*:2])N[*:1]

Tests used:
[1] = Solubility in 100 mM bistrispropane buffer at pH 6.0 incubated for 18 hrs by UPLC analysis; type: physicochemical
Calcitonin receptor [2] = molecular target: T1, Calcitonin receptor (Homo sapiens, UniProt P30988); assay: Agonist activity at human calcitonin receptor expressed in BHK570 cells assessed as increase in intracellular cAMP concentration incubated for 3 hrs in presence of 10% FBS by CRE luciferase reporter gene assay; type: functional, cell-based
T1 sequence (P30988 whole entry): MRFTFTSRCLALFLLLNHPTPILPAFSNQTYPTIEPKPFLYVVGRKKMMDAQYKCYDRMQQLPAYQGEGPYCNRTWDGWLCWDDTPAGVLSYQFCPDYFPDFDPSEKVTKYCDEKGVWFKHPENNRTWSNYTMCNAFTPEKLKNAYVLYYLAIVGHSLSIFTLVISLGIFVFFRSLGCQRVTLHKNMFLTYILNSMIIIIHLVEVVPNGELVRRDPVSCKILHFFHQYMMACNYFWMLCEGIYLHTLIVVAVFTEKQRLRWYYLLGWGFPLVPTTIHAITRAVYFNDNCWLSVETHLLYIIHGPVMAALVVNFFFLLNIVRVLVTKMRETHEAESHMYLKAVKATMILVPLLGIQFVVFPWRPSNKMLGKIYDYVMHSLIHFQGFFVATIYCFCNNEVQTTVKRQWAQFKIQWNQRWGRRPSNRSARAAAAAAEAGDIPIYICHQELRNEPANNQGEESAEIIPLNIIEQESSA

[3] = Solubility in 100 mM glycylglycine buffer at pH 5.0 incubated for 18 hrs by UPLC analysis; type: physicochemical
[4] = Solubility in 100 mM glycylglycine buffer at pH 4.0 incubated for 18 hrs by UPLC analysis; type: physicochemical
[5] = Solubility in 100 mM bistrispropane buffer at pH 7.0 incubated for 18 hrs by UPLC analysis; type: physicochemical
[6] = Solubility in 100 mM bistrispropane buffer at pH 6.5 incubated for 18 hrs by UPLC analysis; type: physicochemical
[7] = Solubility in 100 mM glycylglycine buffer at pH 3.0 incubated for 18 hrs by UPLC analysis; type: physicochemical
Calcitonin receptor [8] = molecular target: T1, Calcitonin receptor; assay: Agonist activity at human calcitonin receptor expressed in BHK570 cells assessed as increase in intracellular cAMP concentration incubated for 3 hrs in absence of albumin by CRE luciferase reporter gene assay; type: functional, cell-based
[9] = molecular target: T2, Amylin receptor AMY3; CALCR/RAMP3 (Homo sapiens, UniProt O60896+P30988); assay: Displacement of [125I]-labeled rat amylin from human amylin receptor expressed in BHK tkts13 whole cells co-expressing RAMP3 incubated for 60 mins by scintillation proximity assay; type: cell-based
T2 sequence (P30988 whole entry): T1 sequence (P30988 whole entry)
T2 sequence (O60896 whole entry): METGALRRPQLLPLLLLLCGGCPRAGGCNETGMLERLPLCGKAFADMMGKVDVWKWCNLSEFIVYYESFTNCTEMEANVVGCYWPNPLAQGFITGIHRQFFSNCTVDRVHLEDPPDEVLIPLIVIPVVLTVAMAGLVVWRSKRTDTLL

[10] = Solubility in 100 mM bistrispropane buffer at pH 7.5 incubated for 18 hrs by UPLC analysis; type: physicochemical
[11] = Solubility in 100 mM bistrispropane buffer at pH 8.0 incubated for 18 hrs by UPLC analysis; type: physicochemical
[12] = molecular target: T2, Amylin receptor AMY3; CALCR/RAMP3; assay: Agonist activity at human amylin receptor expressed in BHK570 cells co-expressing RAMP3 assessed as increase in intracellular cAMP concentration incubated for 3 hrs in absence of albumin by CRE luciferase reporter gene assay; type: functional, cell-based
[13] = molecular target: T2, Amylin receptor AMY3; CALCR/RAMP3; assay: Agonist activity at human amylin receptor expressed in BHK570 cells co-expressing RAMP3 assessed as increase in intracellular cAMP concentration incubated for 3 hrs in presence of 10% FBS by CRE luciferase reporter gene assay; type: functional, cell-based

Structure (SMILES)	solubility at 18 h [1] [µM]	EC50 (Calcitonin receptor [2]) [nM]	solubility at 18 h [3] [µM]	solubility at 18 h [4] [µM]	solubility at 18 h [5] [µM]	solubility at 18 h [6] [µM]	solubility at 18 h [7] [µM]	EC50 (Calcitonin receptor [8]) [nM]	IC50 [9] [nM]	solubility at 18 h [10] [µM]	solubility at 18 h [11] [µM]	EC50 [12] [nM]	EC50 [13] [nM]
CC(C)C[C@H](NC(=O)[C@H](C)NC(=O)[C@H](C)NC(=O)[C@@H](NC(=O)[C@H](CO)NC(=O)[C@H](CC(C)C)NC(=O)[C@H](CCC(=O)O)NC(=O)[C@H](CO)NC(=O)[C@H](C)NC(=O)CC[C@H](NC(=O)CCCCCCCCCCCCCCCCCCC(=O)O)C(=O)O)[C@@H](C)O)C(=O)NCC(=O)N[C@@H](CCCNC(=N)N)C(=O)N[C@@H](CC(C)C)C(=O)N[C@@H](CO)C(=O)N[C@@H](C)C(=O)N[C@@H](CCC(=O)O)C(=O)N[C@@H](CC(C)C)C(=O)N[C@@H](Cc1cnc[nH]1)C(=O)N[C@@H](CCC(=O)O)C(=O)N[C@@H](CC(C)C)C(=O)N[C@@H](C)C(=O)N[C@H](C(=O)N[C@@H](CC(C)C)C(=O)N1CCC[C@H]1C(=O)N[C@@H](CCCNC(=N)N)C(=O)N[C@H](C(=O)N[C@@H](CCC(=O)O)C(=O)N[C@H](C(=O)NCC(=O)N[C@H](C(=O)NCC(=O)N[C@H](C(=O)N1CCC[C@H]1C(N)=O)[C@@H](C)O)[C@@H](C)O)[C@@H](C)O)[C@@H](C)O)[C@@H](C)O ({C20 diacid-γGlu}-ASELSTAALGRLSAELHELATLPRTETGTGTP-NH2)	≥ 200	0.056	≥ 200	≥ 200	≥ 200	≥ 200	≥ 200	0.045	0.606	≥ 200	≥ 200	0.05	
CC(C)C[C@H](NC(=O)[C@H](C)NC(=O)[C@H](C)NC(=O)[C@@H](NC(=O)[C@H](CO)NC(=O)[C@H](CC(C)C)NC(=O)[C@H](CCC(=O)O)NC(=O)[C@H](CO)NC(=O)[C@H](C)NC(=O)CC[C@H](NC(=O)CCCCCCCCCCCCCCCCCCC(=O)O)C(=O)O)[C@@H](C)O)C(=O)NCC(=O)N[C@@H](CCCNC(=N)N)C(=O)N[C@@H](CC(C)C)C(=O)N[C@@H](CO)C(=O)N[C@@H](C)C(=O)N[C@@H](CCC(=O)O)C(=O)N[C@@H](CC(C)C)C(=O)N[C@@H](Cc1cnc[nH]1)C(=O)N[C@@H](CCC(=O)O)C(=O)N[C@@H](CC(C)C)C(=O)N[C@@H](C)C(=O)N[C@H](C(=O)N[C@@H](Cc1ccc(O)cc1)C(=O)N1CCC[C@H]1C(=O)N[C@@H](CCCNC(=N)N)C(=O)N[C@H](C(=O)N[C@@H](CCC(=O)O)C(=O)N[C@H](C(=O)NCC(=O)N[C@@H](CO)C(=O)NCC(=O)N[C@@H](CO)C(=O)N1CCC[C@H]1C(=O)NCC(=O)O)[C@@H](C)O)[C@@H](C)O)[C@@H](C)O ({C20 diacid-γGlu}-ASELSTAALGRLSAELHELATYPRTETGSGSPG-OH)		0.05						0.064	7.26			0.187	
CC(C)C[C@H](NC(=O)CNC(=O)[C@H](CO)NC(=O)[C@H](C)NC(=O)CC[C@H](NC(=O)CCCCCCCCCCCCCCCCCCC(=O)O)C(=O)O)C(=O)N[C@@H](CO)C(=O)N[C@H](C(=O)N[C@@H](C)C(=O)N[C@@H](C)C(=O)N[C@@H](CC(C)C)C(=O)NCC(=O)N[C@@H](CCCNC(=N)N)C(=O)N[C@@H](CC(C)C)C(=O)N[C@@H](CO)C(=O)N[C@H](C(=O)N[C@@H](CCC(=O)O)C(=O)N[C@@H](CC(C)C)C(=O)N[C@@H](Cc1cnc[nH]1)C(=O)N[C@@H](CCC(=O)O)C(=O)N[C@@H](CC(C)C)C(=O)N[C@@H](CCC(=O)O)C(=O)N[C@H](C(=O)N[C@@H](Cc1ccc(O)cc1)C(=O)N1CCC[C@H]1C(=O)N[C@@H](CCCNC(=N)N)C(=O)N[C@H](C(=O)N[C@@H](CCC(=O)O)C(=O)N[C@H](C(=O)NCC(=O)N[C@@H](CO)C(=O)NCC(=O)N[C@H](C(=O)N[C@@H](Cc1ccc(O)cc1)C(N)=O)[C@@H](C)O)[C@@H](C)O)[C@@H](C)O)[C@@H](C)O)[C@@H](C)O)[C@@H](C)O ({C20 diacid-γGlu}-ASGLSTAALGRLSTELHELETYPRTETGSGTY-NH2)	≥ 200	0.067			≥ 200	≥ 200	≥ 200	0.018	0.431	≥ 200	≥ 200	0.054	

Continued by falling EC50 (Calcitonin receptor [8]), values first:

solubility at 18 h [1] [µM]	EC50 (Calcitonin receptor [2]) [nM]	solubility at 18 h [3] [µM]	solubility at 18 h [4] [µM]	solubility at 18 h [5] [µM]	solubility at 18 h [6] [µM]	solubility at 18 h [7] [µM]	EC50 (Calcitonin receptor [8]) [nM]	IC50 [9] [nM]	solubility at 18 h [10] [µM]	solubility at 18 h [11] [µM]	EC50 [12] [nM]	EC50 [13] [nM]	Structure (SMILES)
≥ 200	0.031	≥ 200	≥ 200	≥ 200	≥ 200	≥ 200	0.066	19.7	≥ 200	≥ 200			CC(C)C[C@H](NC(=O)[C@H](CCCNC(=N)N)NC(=O)CNC(=O)[C@H](CC(C)C)NC(=O)[C@@H](NC(=O)[C@H](C)NC(=O)[C@@H](NC(=O)[C@@H](NC(=O)[C@H](CC(C)C)NC(=O)[C@H](CCC(=O)O)NC(=O)[C@H](CO)NC(=O)[C@H](C)NC(=O)CC[C@H](NC(=O)CCCCCCCCCCCCCCCCC(=O)O)C(=O)O)[C@@H](C)O)[C@@H](C)O)C(C)C)C(=O)N[C@@H](CCC(=O)O)C(=O)N[C@@H](C)C(=O)N[C@@H](CCC(=O)O)C(=O)N[C@@H](CC(C)C)C(=O)N[C@@H](Cc1cnc[nH]1)C(=O)N[C@@H](CCC(=O)O)C(=O)N[C@@H](CC(C)C)C(=O)N[C@H](C(=O)N[C@H](C(=O)N[C@@H](CC(C)C)C(=O)N1CCC[C@H]1C(=O)N[C@@H](CCCNC(=N)N)C(=O)N[C@H](C(=O)N[C@@H](CCC(=O)O)C(=O)N[C@H](C(=O)NCC(=O)N[C@H](C(=O)NCC(=O)N[C@H](C(=O)N1CCC[C@H]1C(N)=O)[C@@H](C)O)[C@@H](C)O)[C@@H](C)O)[C@@H](C)O)[C@@H](C)O)[C@@H](C)O ({C18 diacid-γGlu}-ASELTTAVLGRLEAELHELTTLPRTETGTGTP-NH2)
≥ 200		≥ 200	≥ 200	≥ 200	≥ 200	≥ 200	0.025		≥ 200	≥ 200	0.041	0.085	CC(C)C[C@H](NC(=O)[C@H](C)NC(=O)[C@H](C)NC(=O)[C@@H](NC(=O)[C@H](CO)NC(=O)[C@H](CC(C)C)NC(=O)[C@H](CCC(=O)O)NC(=O)[C@H](CO)NC(=O)[C@H](C)NC(=O)CC[C@H](NC(=O)CCCCCCCCCCCCCCCCCCC(=O)O)C(=O)O)[C@@H](C)O)C(=O)NCC(=O)N[C@@H](CCCNC(=N)N)C(=O)N[C@@H](CC(C)C)C(=O)N[C@@H](CO)C(=O)N[C@@H](CCC(=O)O)C(=O)N[C@@H](CCC(=O)O)C(=O)N[C@@H](CC(C)C)C(=O)N[C@@H](Cc1cnc[nH]1)C(=O)N[C@@H](CCC(=O)O)C(=O)N[C@@H](CC(C)C)C(=O)N[C@@H](C)C(=O)N[C@H](C(=O)N[C@@H](CC(C)C)C(=O)N1CCC[C@H]1C(=O)N[C@@H](CCCNC(=N)N)C(=O)N[C@H](C(=O)N[C@@H](CCC(=O)O)C(=O)N[C@H](C(=O)NCC(=O)N[C@@H](CO)C(=O)NCC(=O)N[C@@H](CO)C(=O)N1CCC[C@H]1C(N)=O)[C@@H](C)O)[C@@H](C)O)[C@@H](C)O ({C20 diacid-γGlu}-ASELSTAALGRLSEELHELATLPRTETGSGSP-NH2)
≥ 200	0.113	≥ 200	≥ 200	≥ 200	≥ 200	≥ 200	0.015	1.92	≥ 200	≥ 200	0.017		CC(C)C[C@H](NC(=O)[C@H](C)NC(=O)[C@H](C)NC(=O)[C@@H](NC(=O)[C@H](CO)NC(=O)[C@H](CC(C)C)NC(=O)[C@H](CCC(=O)O)NC(=O)[C@H](CO)NC(=O)[C@H](C)NC(=O)[C@H](C)NC(=O)[C@H](CCC(=O)O)NC(=O)CC[C@H](NC(=O)CCCCCCCCCCCCCCCCCCC(=O)O)C(=O)O)[C@@H](C)O)C(=O)NCC(=O)N[C@@H](CCCNC(=N)N)C(=O)N[C@@H](CC(C)C)C(=O)N[C@@H](CO)C(=O)N[C@@H](C)C(=O)N[C@@H](CCC(=O)O)C(=O)N[C@@H](CC(C)C)C(=O)N[C@@H](Cc1cnc[nH]1)C(=O)N[C@@H](CCC(=O)O)C(=O)N[C@@H](CC(C)C)C(=O)N[C@@H](C)C(=O)N[C@H](C(=O)N[C@@H](Cc1ccc(O)cc1)C(=O)N1CCC[C@H]1C(=O)N[C@@H](CCCNC(=N)N)C(=O)N[C@H](C(=O)N[C@@H](CCC(=O)O)C(=O)N[C@H](C(=O)NCC(=O)N[C@@H](CO)C(=O)NCC(=O)N[C@@H](CO)C(=O)N1CCC[C@H]1C(N)=O)[C@@H](C)O)[C@@H](C)O)[C@@H](C)O ({C20 diacid-γGlu}-EAASELSTAALGRLSAELHELATYPRTETGSGSP-NH2)
